In ChEMBL document CHEMBL4138120, “Modification of C-seco taxoids through ring tethering and substituent replacement leading to effective agents against tumor drug resistance mediated by βIII-Tubulin and P-glycoprotein (P-gp) overexpressions” (Eur J Med Chem, 2017):

Experiments:
[1] = Resistance index, ratio of IC50 for human Hela-beta3 cells to IC50 for human HeLa cells; format: functional
[2] = Cytotoxicity against human Hela-beta3 cells assessed as decrease in cell viability after 48 hrs by MTT assay; format: functional, cell-based
HeLa [3] = assay: Cytotoxicity against human HeLa cells assessed as decrease in cell viability after 48 hrs by MTT assay; format: functional, cell-based
HeLa [4] = assay: Cell cycle arrest in human HeLa cells assessed as concentration at which maximal accumulation at G2/M phase after 20 hrs by propidium iodide staining-based flow cytometric method; format: functional
[5] = Resistance index, ratio of IC50 for human A2780AD cells to IC50 for human A2780 cells; format: functional
KB-V1 = assay: Cytotoxicity against human KBV1 cells assessed as decrease in cell viability after 48 hrs by MTT assay; format: functional, cell-based; conditions: KB-V1, 48 h
A2780 = assay: Cytotoxicity against human A2780 cells assessed as decrease in cell viability after 48 hrs by MTT assay; format: functional, cell-based; conditions: A2780, 48 h
KB = assay: Cytotoxicity against human KB cells assessed as decrease in cell viability after 48 hrs by MTT assay; format: functional, cell-based
[6] = Resistance index, ratio of IC50 for human KBV1 cells to IC50 for human KB cells; format: functional
Bos taurus [7] = species: Bos taurus; assay: Induction of calf brain microtubule assembly assessed as concentration of unassembled tubulin at 25 uM incubated for 45 mins by spectrophotometric method (reference value: >20 uM)
[8] = Cell cycle arrest in human Hela-beta3 cells assessed as concentration at which maximal accumulation at G2/M phase after 20 hrs by propidium iodide staining-based flow cytometric method; format: functional
[9] = Cytotoxicity against human A2780AD cells assessed as decrease in cell viability after 48 hrs by MTT assay; format: functional, cell-based
Bos taurus [10] = species: Bos taurus; assay: Displacement of Flutax-2 from calf brain microtubule after 20 mins by fluorescence polarization assay relative to paclitaxel
[11] = Cytotoxicity against human Hela-beta3 cells assessed as decrease in cell viability after 48 hrs in presence of beta-3 tubulin siRNA by MTT assay; format: functional, cell-based
HeLa [12] = assay: Ratio of IC50 for human HeLa cells harboring beta-3 tubulin siRNA to IC50 for human HeLa cells; format: functional
[13] = Potency index, ratio of paclitaxel IC50 to test compound IC50 for human A2780AD cells; format: functional

| SMILES | Ratio IC50 [1] | IC50 [2] [nM] | IC50 (HeLa [3]) [nM] | Activity (HeLa [4]) [nM] | Ratio IC50 [5] | IC50 (KB-V1) [nM] | IC50 (A2780) [nM] | IC50 (KB) [nM] | Ratio IC50 [6] | Unassembled tubulin concentration (Bos taurus [7]) [µM] | Activity [8] [nM] | IC50 [9] [nM] | fold change (FC) (Bos taurus [10]) | IC50 [11] [nM] | Ratio IC50 (HeLa [12]) | Ratio IC50 [13] |
| --- | --- | --- | --- | --- | --- | --- | --- | --- | --- | --- | --- | --- | --- | --- | --- | --- |
| CO/C1=C(\C)[C@@H]([C@]2(OC(C)=O)CO[C@@H]2CCO)[C@H](OC(=O)c2ccccc2)[C@]2(O)C[C@H](OC(=O)[C@H](O)[C@@H](NC(=O)c3ccccc3)c3ccccc3)C(C)=C(C1=O)C2(C)C | 12.3 | 3840 | 312 |  |  |  |  |  |  |  |  |  |  |  |  |  |
| CC(=O)O[C@@]12CO[C@@H]1CCOC/C=C/CO/C1=C(\C)[C@@H]2[C@H](OC(=O)c2cccc(N=[N+]=[N-])c2)[C@]2(O)C[C@H](OC(=O)[C@H](O)[C@@H](NC(=O)c3ccccc3)c3ccccc3)C(C)=C(C1=O)C2(C)C | 64 | 45 | 0.7 | 25 | 11.4 | 94 | 2.8 | 15 | 6.2 | 2.34 | 15 | 32 | 1.15 |  |  |  |
| CC(=O)O[C@@]1([C@@H]2/C(C)=C(/O)C(=O)C3=C(C)[C@@H](OC(=O)[C@H](O)[C@H](CC(C)C)NC(=O)OC(C)(C)C)C[C@@](O)([C@H]2OC(=O)c2ccccc2)C3(C)C)CO[C@@H]1CCO | 10 | 33 | 3.3 | 15 | 207 | 255 | 4.3 | 6.6 | 38.7 | 3.2 | 15 | 893 | 0.132 |  |  |  |
| CC(=O)O[C@@]12CO[C@@H]1CCOC/C=C/CCCO/C1=C(\C)[C@@H]2[C@H](OC(=O)c2ccccc2)[C@]2(O)C[C@H](OC(=O)[C@H](O)[C@@H](NC(=O)c3ccccc3)c3ccccc3)C(C)=C(C1=O)C2(C)C | 2.2 | 282 | 126 |  |  |  |  |  |  |  |  |  | 0.17 |  |  |  |
| COc1cccc(C(=O)O[C@H]2[C@H]([C@]3(OC(C)=O)CO[C@@H]3CCO)/C(C)=C(/O)C(=O)C3=C(C)[C@@H](OC(=O)[C@H](O)[C@H](CC(C)C)NC(=O)OC(C)(C)C)C[C@]2(O)C3(C)C)c1 | 33.6 | 72 | 2.1 | 80 | 279 | 3400 | 5.1 | 2.9 | 1172 | 16.6 | 25 | 1420 | 1.28 |  |  |  |
| CC(=O)O[C@@]12CO[C@@H]1CCOCCCCCCO/C1=C(\C)[C@@H]2[C@H](OC(=O)c2ccccc2)[C@]2(O)C[C@H](OC(=O)[C@H](O)[C@@H](NC(=O)c3ccccc3)c3ccccc3)C(C)=C(C1=O)C2(C)C | 5.3 | 118 | 22 |  |  |  |  |  |  |  |  |  | 0.61 |  |  |  |
| CC(=O)O[C@@]12CO[C@@H]1CCOC/C=C/CCO/C1=C(\C)[C@@H]2[C@H](OC(=O)c2ccccc2)[C@]2(O)C[C@H](OC(=O)[C@H](O)[C@@H](NC(=O)c3ccccc3)c3ccccc3)C(C)=C(C1=O)C2(C)C | 5.7 | 158 | 27.9 |  |  |  |  |  |  |  |  |  | 0.23 |  |  |  |
| CC(=O)O[C@@]12CO[C@@H]1CCOC/C=C\CCO/C1=C(\C)[C@@H]2[C@H](OC(=O)c2ccccc2)[C@]2(O)C[C@H](OC(=O)[C@H](O)[C@@H](NC(=O)c3ccccc3)c3ccccc3)C(C)=C(C1=O)C2(C)C | 5.1 | 34 | 6.7 |  | 87.4 |  | 25.1 |  |  |  |  | 2190 | 0.96 |  |  |  |
| CC(=O)O[C@@]12CO[C@@H]1CCOC/C=C/CO/C1=C(\C)[C@@H]2[C@H](OC(=O)c2ccccc2)[C@]2(O)C[C@H](OC(=O)[C@H](O)[C@@H](NC(=O)c3ccccc3)c3ccccc3)C(C)=C(C1=O)C2(C)C | 7.5 | 26 | 3.5 |  | 77.1 |  | 22.3 |  |  |  |  | 1720 | 0.96 |  |  |  |
| CC(=O)O[C@@]1([C@@H]2/C(C)=C(/O)C(=O)C3=C(C)[C@@H](OC(=O)[C@H](O)[C@@H](NC(=O)c4ccccc4)c4ccccc4)C[C@@](O)([C@H]2OC(=O)c2cccc(N=[N+]=[N-])c2)C3(C)C)CO[C@@H]1CCO | 209 | 209 | 1 | 55 |  | 5100 | 1.6 | 5.1 | 1000 | 3.82 | 20 | > 5000 | 1.18 |  |  |  |
| CC(=O)O[C@@]1([C@@H]2/C(C)=C(/O)C(=O)C3=C(C)[C@@H](OC(=O)[C@H](O)[C@H](CC(C)C)NC(=O)OC(C)(C)C)C[C@@](O)([C@H]2OC(=O)c2cccc(N=[N+]=[N-])c2)C3(C)C)CO[C@@H]1CCO | 21 | 19 | 0.9 | 20 | 23.4 | 503 | 4.1 | 5.2 | 97 | 3.63 | 10 | 96 | 2.17 |  |  |  |
| CC(=O)O[C@@]1([C@@H]2/C(C)=C(/O)C(=O)C3=C(C)[C@@H](OC(=O)[C@H](O)[C@@H](NC(=O)c4ccccc4)c4ccccc4)C[C@@](O)([C@H]2OC(=O)c2ccccc2)C3(C)C)CO[C@@H]1CCO | 15.6 | 2980 | 192 |  | >35.4 |  | 282 |  |  |  |  | > 10000 | 0.1 |  |  |  |
| CC(=O)O[C@H]1C(=O)[C@@]2(C)[C@H]([C@H](OC(=O)c3ccccc3)[C@]3(O)C[C@H](OC(=O)[C@H](O)[C@@H](NC(=O)c4ccccc4)c4ccccc4)C(C)=C1C3(C)C)[C@]1(OC(C)=O)CO[C@@H]1C[C@@H]2O [PACLITAXEL] | 19.6 - 31.8 | 19.7 to 34 | 1.1 to 1.3 | 35 | 759 - 1198 | 9800 | 1.07 to 6 | 1.9 | 5157 | 5.36 | 15 | 1280 to 4550 |  | 9 | 4 |  |
| CC(=O)O[C@@]12CO[C@@H]1CCOCCCCO/C1=C(\C)[C@@H]2[C@H](OC(=O)c2ccccc2)[C@]2(O)C[C@H](OC(=O)[C@H](O)[C@@H](NC(=O)c3ccccc3)c3ccccc3)C(C)=C(C1=O)C2(C)C | 6.9 | 58 | 8 |  |  |  |  |  |  |  |  |  | 0.89 |  |  |  |
| COCC[C@H]1OC[C@@]1(OC(C)=O)[C@@H]1/C(C)=C(/O)C(=O)C2=C(C)[C@@H](OC(=O)[C@H](O)[C@@H](NC(=O)c3ccccc3)c3ccccc3)C[C@@](O)([C@H]1OC(=O)c1ccccc1)C2(C)C | 7.6 | 226 | 30 |  |  |  |  |  |  |  |  |  |  |  |  |  |
| CC(=O)O[C@@]12CO[C@@H]1CCOCCCCCO/C1=C(\C)[C@@H]2[C@H](OC(=O)c2ccccc2)[C@]2(O)C[C@H](OC(=O)[C@H](O)[C@@H](NC(=O)c3ccccc3)c3ccccc3)C(C)=C(C1=O)C2(C)C | 6 | 13.3 to 20 | 3.3 |  | 55 |  | 25.4 |  |  |  |  | 1400 | 1.3 | 5.2 | 1.5 | 2 - 3 |
